Literature values in patent US8999405B1 (priority 2013, dated 2015).

What was measured:
[1] = alkaline nitrogenous base of nicotine

SMILES	Solubility Alcohol (alcohol)	Solubility Other (other solvent, named in the cell)	Solubility Water (water)	pKa [1]
CN1CCC[C@H]1c1cccnc1.O=C(O)c1ccccc1C(=O)O [Phthalic]	soluble	insoluble: ether	soluble	
CN1CCC[C@H]1c1cccnc1 [nicotine I, 3-(1-methyl-2-pyrrolidinyl) pyridine]				~8.5
